Measurements from PMC7708037, “Targeting OGG1 arrests cancer cell proliferation by inducing replication stress” (Nucleic Acids Research, 2020).

What was measured:
[1] = system: peripheral blood mononuclear cells (PBMCs); assay: PBMC proliferation / tolerance; format: cell-based
Method: Peripheral blood mononuclear Cells (PBMC) were isolated from peripheral whole blood from controls using Histopaque®-1077 (Sigma-Aldrich, San Luis, MO, USA) following the manufacturer's instructions. Briefly, peripheral blood was collected in heparin and diluted with equal amount of PBS. Next, blood was centrifuged with Histopaque®-1077 at 400 × g for 30 min at room temperature and the PBMC layer was recovered. All steps were processed within 4 h after blood extraction.
PMBCs and CD34- fraction (CB) were cultured in the presence of PHA-L (Sigma-Aldrich, ref: 11249738001) or Dynabeads® Human T-Activator CD3/CD28 (Thermofisher scientific, ref: 11131D) for the activation and expansion of human T cells according to the manufacturer's instructions. […]
experiments (Supplementary Table S1).
PBMCs from two donors were activated using Dynabeads and exposed to 10 µM TH5487 during 72 h […]
to follow cell numbers. […] CD3+ T-cells were activated with Dynabeads and treated with DMSO or TH5487 for 6 days, or 25 µM camptothecin for 24 h as a technical control. Survival was assessed by flow cytometry. Data are three technical replicates from one donor, representative of four individuals. Paired, two-sided T-tests were used to assess significance (ns, non-significant, ****, P<0.0001). I. to K. Gating strategy for identification of dead cells. CD3+ cells were stained with Annexin V and Sytox Blue. […]

[2] = system: A3 shNT cells transcriptome; assay: RNA-sequencing and Gene Set Enrichment Analysis; format: cell-based, human; settings: 10 μM, 24 h vs DMSO
Method: To extract bulk RNA from cells, the pellets were resuspended in 500 μl of TRI Reagent. After 5 min, 100 μl of chloroform was added and the tubes were shaken by hand for one minute. After 15 min incubation, the samples were centrifuged at 12 000 × g for 15 min at 4°C. 300 μl of the aqueous phase were then mixed thoroughly with 300 μl of Isopropanol, 30 μl of 3M Sodium Acetate and 1 μl of Pellet Paint (Merck 69049) and incubated over night at −20°C. The following day, the samples were centrifuged at 20 000 × g g for 30 min and the pellets washed twice with 600 μl of 70% ethanol. After drying, the pellets were resuspended in 15 μl of Elution Buffer and the concentration of RNA was measured using the Qubit RNA High Sensitivity Assay (Thermo Fischer Q32852) according to the manufacturer's instructions.
After diluting the samples, 2 ng of RNA were used as input for the Smart-seq2 RNA-sequencing protocol ([41]) and 50 bp single ends were sequenced on an Illumina HiSeq 3000 sequencer. Reads were mapped to the ENSEMBL human transcriptome GRCh37 using Tophat 2.1.1 to generate the read count matrix.
Differential expression analysis was performed with DESeq2 (v. 1.26.0) ([42]). […] For Gene Set Enrichment Analysis only genes with a mean expression >5 normalized counts as determined by DESeq2 were taken into account. […]
Figure 6. […] Only genes with a mean normalized count >5 were analyzed. […]

O=C(Nc1ccc(I)cc1)N1CCC(n2c(=O)[nH]c3c(Br)cccc32)CC1 [TH5487]
Tolerance by resting and activated PBMCs ([1]; 10 μM, healthy donors): well tolerated | Proliferation of activated PBMCs ([1]; Dynabeads-activated PBMCs from two donors, 10 µM, 72 h): does not affect proliferation | 'DNA replication' gene signature (GSEA) [2]: one of the most downregulated gene signatures
